Data from patent publication US8795734B2, “Hydrophobic nanotubes and nanoparticles as transporters for the delivery of drugs into cells” (The Board of Trustees of the Leland Stanford Junior …, priority 2005, dated 2014).

How the values were obtained:
CXCR4 = assay: Silencing by PL-PEG-s-s-siRNA conjugates of different nanoparticles; format: cell-based
From the text: Conjugates as prepared according to Examples 24-27 were made with nanoparticles other than SWNTs. It was shown that MWNTs, carbon black nanoparticles can all be used to make noncovalent PL-PEG-s-s-siRNA conjugates. […] Referring to FIG. 10A, the silencing effect for these conjugates is shown with reference to SWNT conjugates. The experiments were done with the following:
Referring now to FIG. 10B, CXCR4 silencing is shown for different nanoparticles. Polystyrene spheres (PS, 20 nm and 50 nm) were also used to make noncovalent PL-PEG-s-s-siRNA conjugates. […] The data in FIG. 10B below compares the RNAi effects of PS delivery vs. nanotube delivery.

HL60 cells = assay: Cellular uptake of SWNT conjugates by confocal microscopy and flow cytometry; format: cell-based, human; details: protein alone, versus untreated cells
Experimental: HL60 and Jurkat cells were both grown in RPMI-1640 cell culture medium (Invitrogen) supplemented with 10% fetal bovine serum (FBS). Prior to incubation, the cells were collected by centrifugation and resuspended in RPMI medium at a cell density of 3μ 10^6 cells/mL. Incubation of cells in a nanotube solution was done by mixing 100 μL of the cell suspension with 100 μL of a SWNT solution (2, 3 or 4) at 37° C. unless otherwise stated. The concentration of SWNT in the incubation solution was ˜0.05 mg/mL unless otherwise stated, and the incubation duration was always 1 h in 5% CO2 atmosphere except for time dependent incubation experiments. After incubation, the cells were washed and collected by centrifugation twice, and resuspended in RPMI medium.
FM4-64 (Molecular Probes Inc.) is a classical marker used for staining membrane and endosomes. The cell incubations were carried out under similar conditions as discussed in the previous section, except that FM 4-64 (2% v/v) was added to the incubation mixture. […]
Also, cells were analyzed by a Becton-Dickinson FACScan instrument after incubation in various nanotube solutions. […] We carried out dual detection of red and green fluorescence with the cells. The data presented here represent the mean green fluorescence obtained with a population of 10,000 live cells.

HL-60 cells [1] = assay: Cell proliferation CellTiter 96 MTS assay; format: cell-based, human; details: 2 h incubation, monitored up to 5 days versus untreated cells
Experimental: After incubation with the SWNT-streptavidin conjugate (unlabeled), HL-60 cells were washed and resuspended in RPMI media. The cells were plated in a 6-well plate at a density of ˜8×10^3 cells/well. At 24 h interval, Celltiter96 reagent (Promega) was added to one of the wells and allowed to incubate for ˜2-3 h at 37° C. and 5% CO2. The CellTiter 96 assay uses the tetrazolium compound (3-(4,5-dimethylthiazol-2-yl)-5-(3-carboxymethoxyphenyl)-2-(4-sulfophenyl)-2H-tetrazolium, inner salt; MTS) and the electron-coupling reagent, phenazine methosulfate (PMS). […] The measurement of the absorbance of the formazan can be carried out at 490 nm. […]
We used the CellTiter 96 MTS assay (Promega) to examine the proliferation of HL60 cells following exposure to SWNT-protein conjugates. […] The absorbance of the formazan salt can be measured at 490 nm and correlates to the number of cells in the suspension. The absorbance from the cells incubated with the SWNT-protein conjugates was measured over a period of 5 days in parallel with control cells never exposed to any nanotubes. The absorbance detected by a UV-VIS spectrophotometer was very similar for cells with and without exposure to SWNTs over the 5-day monitoring period.
Cells were incubated with SWNT-SA conjugate (without fluorescent label) for 2 hrs. […] The absorbance is then taken at 490 nm.

HL60 and HeLa cells = assay: Internalization of SWNT-protein, SWNT-DNA and SWNT-SS-DNA conjugates (fluorescence confocal, flow cytometry); format: cell-based, human
Experimental: Two cell lines, human promyelomonocytic HL60 cells and cervical cancer HeLa cells were used in the current work. HL60 were cultured in RPMI medium supplemented with 10% fetal bovine serum (FBS), while HeLa cells were cultured in DMEM medium supplemented with 10% FBS and 1% penicillin-streptomycin. The cells were suspended in phosphate buffered saline (PBS), mixed with a SWNT conjugate and incubated for 1-3 h at 37° C., except for the low temperature incubations. The concentration of SWNTs in the incubation solution was typically ˜2.5 mg/L as measured by UV-vis-NIR absorption spectrum, and the cell density was ˜2×10^5 cells/well. Adherent HeLa cells were either trypsinized to detach from the Petri dishes to form a suspension or were seeded overnight in chambered cover-slides.
Both the protein and DNA molecules were labeled with a fluorescent tag (by either Cy3 or Alexa Fluor 488) to allow for confocal fluorescence imaging and flow cytometry analysis.
We carried out incubations of protein-SWNT and DNA-SWNT with HL60 and HeLa cells at 4° C. and with cells pretreated with NaN3.

HL-60 cells [2] = assay: Cell viability study with PEG-phospholipid functionalized SWNTs (propidium iodide); format: cell-based
Experimental: HL-60 cells were incubated and then washed to remove excess nanotubes, as described above. The cells were then placed into the incubator for an additional 24 h with the RPMI medium. The cells were then examined through a confocal microscope, after being stained with 2% (v/v) of propidium iodide (Biochemika), a common stain for dead cells. Control experiments were carried out for cells without exposure to nanotubes.
The confocal images (not shown) of HL-60 cells were obtained (a) untreated (b) treated with FTIC-PEG-PE modified CNTs for 90 min at 37° C. Cells were washed and allowed to incubate for an additional 24 h prior to confocal analysis. Propidium iodide is added to the suspension in order to stain for dead cells (red cells in the images).

NIH-3T3 cells = assay: Apoptosis assay by Annexin V-FITC staining; format: cell-based
From the text: We use Annexin V labeled with fluorescein isothiocyanate (Molecular Probes) as an early stage apoptosis marker. One of the earliest indications of apoptosis is the translocation of the membrane phospholipid phosphatidylserine (PS) from the inner to the outer leaflet of the plasma membrane. Once exposed to the extracellular environment, binding sites on PS become available for Annexin V, a ˜35 kDa Ca^2+-dependent, phospholipid binding protein with a high affinity for PS (Pigault, C.; Follenius-Wund, A.; Schmutz, M.; Freyssinet, J.; Brisson, A. J. Mol. Biol. 1994, 236, 199) (also see Sigma Technical Bulletin number MB-390). In this study, NIH 3T3 cells were plated and incubated with SWNT-cytochrome c as described above. […] The cells were co-stained with propidium iodide and immediately analyzed by flow cell cytometry. Apoptosis data in FIG. 3 were for cells free of PI-staining recorded ˜4-5 h after exposure to chloroquine with or without (for control) cyt c-SWNT conjugates.
HeLa (human cervix carcinoma) and NIH-3T3 cell lines, shown previously to undergo cyt-c-induced apoptosis were investigated in this study for intracellular transporting of cyt-c with SWNTs and for apoptosis assay (Cai). Unlike the proteins used for other uptake experiments, cyt-c used for binding to SWNTs and transported inside cells for apoptosis assay were free of any fluorescence label. […]

[3] = system: endosomal compartments of cells; assay: Endosome release of protein-SWNT conjugates by chloroquine (confocal); format: cell-based
From the text: A.; Murthy, N.; Press, O. W.; Tirrell, D. A.; Hoffman, A. S.; Stayton, P. S. Bioconj. Chem. 1999, 10, 401; Cho, Y. W.; Kim, J. D.; Park, K. J. Pharm. Pharmacol. 2003, 55, 721). These methods make use of the pH difference across the endosome membrane and the pH response of the polymers or amines. For SWNT transporters, similar complexation schemes can be developed to afford nanotube transporters containing an endosome-releasing agent. While such an effort warrants detailed investigations separately from the current work, we describe here the release of internalized protein-SWNT conjugates from the endosomal compartments by adding chloroquine to cell medium during incubation of cells in protein-SWNT conjugates. […] The resulting osmotic pressure can lead to swelling of the endosomal compartments and eventual rupture (Ogris, M.; Steinlein, P.; Kursa, M.; Mechtler, K.; Kircheis, R.; Wagner, E. Gene Ther. 1998, 5, 1425).
In experiments carried out with and without chloroquine, we noticed a difference in the distribution of the detected fluorescence inside the cells. […] FIG. 2 (a) Cells are incubated with (a) SWNT-CytC conjugate and (b) SWNT-CytC+100 μM of chloroquine at 37° C. and 5% CO2 Confocal images are taken immediately after incubation and washing. […]

Substance: Carbon black
- cell entry and siRNA delivery (CXCR4): able to enter cells and deliver siRNA into cells
- silencing effect compared to SWNT conjugates (FIG. 10A) (CXCR4; ~20 nM nanoparticle): greater silencing efficiency at day 3

Substance: SA: Fluoresceinated streptavidin protein alone, MW ~60 kD
- fluorescence of cells by flow cytometry (HL60 cells): only slightly greater than the background fluorescence of untreated cells

Substance: SWNT-SA conjugate: Streptavidin without fluorescent label non-specifically bound to oxidized SWNTs
- cell proliferation (absorbance at 490 nm) (HL-60 cells [1]): does not show any deviation from the proliferation of untreated cells

Substance: SWNT-protein: Fluorescently labeled BSA non-specifically bound to oxidized Hipco SWNTs
- cellular internalization (HL60 and HeLa cells; 1-3 h at 37 °C): cellular internalization
- level of fluorescence in the cells (HL60 and HeLa cells; 4 °C incubation and NaN3 pretreatment (ATP depletion)): considerably lower

Substance: Tween-20
- effect of surfactant exposure on cells (HL-60 cells [2]): Cells tended to die

Substance: cyt-c-SWNT: Cytochrome c (12 kD) non-covalently bound to oxidized SWNTs
- percentage of apoptosed cells versus cyt-c alone (NIH-3T3 cells; Annexin V-FITC staining): significantly higher percentages of apoptosed cells
- degree of apoptosis with versus without chloroquine (NIH-3T3 cells; in the presence of chloroquine): Higher degrees of apoptosis
- distribution of fluorescence inside the cells ([3]; 100 μM chloroquine): diffuse and uniform
- distribution of fluorescence inside the cells ([3]; absence of chloroquine): discrete punctate fluorescence spots
